Results published in PubChem BioAssay (NCI).
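Grown in 96-well plates, cells were treated for 48 hours with each compound at five concentrations. Insufficient inhibition: endpoint recorded as highest concentration tested. TGI: total growth inhibition.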

These compounds were tested on DLD-1 colon (assay: NCI tumour cell line growth inhibition, 48 h).
For `CC(C)(C)C1CCC2(CC1)c1[nH]c3ccccc3c1C1(CCC(C(C)(C)C)CC1)c1[nH]c3ccccc3c12` (centres undefined), the TGI was > 100 µM. `COc1c(Br)cc(CC(N)=O)c(O)c1Br` was tested, and the TGI was > 100 µM. For `CCOC(=O)C1=C(OC(OCC)C(CC)[Se]c2ccccc2)CCCC1` (centres undefined), the TGI was 35.5 µM. For `COC1(OC)CCCCC2c3cccc(OC(C)=O)c3C21OC(C)=O` (centres undefined), the TGI was > 100 µM. In the case of `O=C1NC2OC(CO)C(O)C(O1)C2O` (centres undefined), the TGI is reported as > 100 µM. `COC(=O)C1CC2(c3ccccc3)C(=O)c3ccccc3N2O1` (centres undefined) was tested, and the TGI was > 100 µM. In the case of `O=C(O)C(CO)NC(=O)n1c2ccccc2c2ccccc21` (centres undefined), the TGI is reported as > 100 µM. With `O=C(Nc1cccc(O)c1)C(=O)C(C(=O)c1ccccc1F)C1OC(=O)c2ccccc21` (centres undefined) the TGI was > 100 µM. In the case of `C=CCOCCCCC(C(C)=O)C(=O)OC` (centres undefined), the TGI is reported as > 100 µM. `O=C(CC1=NCCN1)c1ccccc1` was tested, and the TGI was > 750 µM.

The compounds below were run on DMS 114 small cell lung (assay: NCI tumour cell line growth inhibition, 48 h).
In the case of `CC(C)(C)C1CCC2(CC1)c1[nH]c3ccccc3c1C1(CCC(C(C)(C)C)CC1)c1[nH]c3ccccc3c12` (centres undefined), the TGI is reported as 57.3 µM. In the case of `COc1c(Br)cc(CC(N)=O)c(O)c1Br`, the TGI is reported as > 100 µM. In the case of `COC1(OC)CCCCC2c3cccc(OC(C)=O)c3C21OC(C)=O` (centres undefined), the TGI is reported as > 100 µM. For `O=C1NC2OC(CO)C(O)C(O1)C2O` (centres undefined), the TGI was > 100 µM. With `COC(=O)C1CC2(c3ccccc3)C(=O)c3ccccc3N2O1` (centres undefined) the TGI was > 100 µM. With `O=C(O)C(CO)NC(=O)n1c2ccccc2c2ccccc21` (centres undefined) the TGI was > 100 µM. `O=C(Nc1cccc(O)c1)C(=O)C(C(=O)c1ccccc1F)C1OC(=O)c2ccccc21` (centres undefined) showed a TGI of 40.7 µM. For `O=C(CC1=NCCN1)c1ccccc1`, the TGI was > 750 µM.

These compounds were tested on DMS 273 small cell lung (assay: NCI tumour cell line growth inhibition, 48 h).
`CC(C)(C)C1CCC2(CC1)c1[nH]c3ccccc3c1C1(CCC(C(C)(C)C)CC1)c1[nH]c3ccccc3c12` (centres undefined) was tested, and the TGI was > 100 µM. With `COc1c(Br)cc(CC(N)=O)c(O)c1Br` the TGI was > 100 µM. `CCOC(=O)C1=C(OC(OCC)C(CC)[Se]c2ccccc2)CCCC1` (centres undefined) was tested, and the TGI was 29.2 µM. For `COC1(OC)CCCCC2c3cccc(OC(C)=O)c3C21OC(C)=O` (centres undefined), the TGI was > 100 µM. `O=C1NC2OC(CO)C(O)C(O1)C2O` (centres undefined) was tested, and the TGI was > 100 µM. With `COC(=O)C1CC2(c3ccccc3)C(=O)c3ccccc3N2O1` (centres undefined) the TGI was > 100 µM. `O=C(O)C(CO)NC(=O)n1c2ccccc2c2ccccc21` (centres undefined) was tested, and the TGI was > 100 µM. Compound `O=C(Nc1cccc(O)c1)C(=O)C(C(=O)c1ccccc1F)C1OC(=O)c2ccccc21` (centres undefined) has a TGI of 98.1 µM. For `O=C(CC1=NCCN1)c1ccccc1`, the TGI was > 750 µM.

What follows are compounds tested on LXFL 529 NSCLC (assay: NCI tumour cell line growth inhibition, 48 h).
In the case of `CC(C)(C)C1CCC2(CC1)c1[nH]c3ccccc3c1C1(CCC(C(C)(C)C)CC1)c1[nH]c3ccccc3c12` (centres undefined), the TGI is reported as > 100 µM. For `CCOC(=O)C1=C(OC(OCC)C(CC)[Se]c2ccccc2)CCCC1` (centres undefined), the TGI was 91.8 µM. With `COC1(OC)CCCCC2c3cccc(OC(C)=O)c3C21OC(C)=O` (centres undefined) the TGI was > 100 µM. With `O=C1NC2OC(CO)C(O)C(O1)C2O` (centres undefined) the TGI was > 100 µM. With `COC(=O)C1CC2(c3ccccc3)C(=O)c3ccccc3N2O1` (centres undefined) the TGI was > 100 µM. With `O=C(O)C(CO)NC(=O)n1c2ccccc2c2ccccc21` (centres undefined) the TGI was > 100 µM. In the case of `O=C(Nc1cccc(O)c1)C(=O)C(C(=O)c1ccccc1F)C1OC(=O)c2ccccc21` (centres undefined), the TGI is reported as 88.8 µM. With `C=CCOCCCCC(C(C)=O)C(=O)OC` (centres undefined) the TGI was > 100 µM.

What follows are compounds tested on M19-MEL melanoma (assay: NCI tumour cell line growth inhibition, 48 h).
In the case of `CC(C)(C)C1CCC2(CC1)c1[nH]c3ccccc3c1C1(CCC(C(C)(C)C)CC1)c1[nH]c3ccccc3c12` (centres undefined), the TGI is reported as > 100 µM. `COc1c(Br)cc(CC(N)=O)c(O)c1Br` was tested, and the TGI was > 100 µM. For `CCOC(=O)C1=C(OC(OCC)C(CC)[Se]c2ccccc2)CCCC1` (centres undefined), the TGI was 33 µM. With `COC1(OC)CCCCC2c3cccc(OC(C)=O)c3C21OC(C)=O` (centres undefined) the TGI was > 100 µM. In the case of `O=C1NC2OC(CO)C(O)C(O1)C2O` (centres undefined), the TGI is reported as > 100 µM. With `COC(=O)C1CC2(c3ccccc3)C(=O)c3ccccc3N2O1` (centres undefined) the TGI was > 100 µM. `O=C(O)C(CO)NC(=O)n1c2ccccc2c2ccccc21` (centres undefined) was tested, and the TGI was > 100 µM. `O=C(Nc1cccc(O)c1)C(=O)C(C(=O)c1ccccc1F)C1OC(=O)c2ccccc21` (centres undefined) gave a TGI of 54.4 µM. For `C=CCOCCCCC(C(C)=O)C(=O)OC` (centres undefined), the TGI was > 100 µM. For `O=C(CC1=NCCN1)c1ccccc1`, the TGI was > 750 µM.

Each compound was assayed on P388 leukemia (assay: NCI tumour cell line growth inhibition, 48 h).
For `O=C(CC1=NCCN1)c1ccccc1`, the TGI was > 750 µM.

What follows are compounds tested on P388/ADR leukemia (assay: NCI tumour cell line growth inhibition, 48 h).
In the case of `O=C(CC1=NCCN1)c1ccccc1`, the TGI is reported as > 750 µM.

The compounds below were run on RXF-631 renal (assay: NCI tumour cell line growth inhibition, 48 h).
In the case of `COc1c(Br)cc(CC(N)=O)c(O)c1Br`, the TGI is reported as > 100 µM. Work on `CCOC(=O)C1=C(OC(OCC)C(CC)[Se]c2ccccc2)CCCC1` (centres undefined) yielded a TGI of 27.9 µM. `O=C(Nc1cccc(O)c1)C(=O)C(C(=O)c1ccccc1F)C1OC(=O)c2ccccc21` (centres undefined) was tested, and the TGI was 93.5 µM.

What follows are compounds tested on SN12K1 renal (assay: NCI tumour cell line growth inhibition, 48 h).
With `O=C(CC1=NCCN1)c1ccccc1` the TGI was > 750 µM.

The compounds below were run on XF 498 CNS (assay: NCI tumour cell line growth inhibition, 48 h).
With `CC(C)(C)C1CCC2(CC1)c1[nH]c3ccccc3c1C1(CCC(C(C)(C)C)CC1)c1[nH]c3ccccc3c12` (centres undefined) the TGI was > 100 µM. For `COc1c(Br)cc(CC(N)=O)c(O)c1Br`, the TGI was > 100 µM. Work on `CCOC(=O)C1=C(OC(OCC)C(CC)[Se]c2ccccc2)CCCC1` (centres undefined) yielded a TGI of 46.5 µM. With `COC1(OC)CCCCC2c3cccc(OC(C)=O)c3C21OC(C)=O` (centres undefined) the TGI was > 100 µM. For `O=C1NC2OC(CO)C(O)C(O1)C2O` (centres undefined), the TGI was > 100 µM. `O=C(O)C(CO)NC(=O)n1c2ccccc2c2ccccc21` (centres undefined) was tested, and the TGI was > 100 µM. For `C=CCOCCCCC(C(C)=O)C(=O)OC` (centres undefined), the TGI was > 100 µM. With `O=C(CC1=NCCN1)c1ccccc1` the TGI was > 750 µM.
